The values below come from patent US20220235065A1 (Epizyme, Inc., priority 2016, published 2022).

Where a name gives a salt, the structure may show the parent alone.

Assay [1] concerns the target T1, recombinant purified human EHMT2 913-1193 (Homo sapiens, UniProt Q96KQ7).
T1 construct: Recombinant purified human EHMT2 913-1193 (55 μM) synthesized by Viva was used for all experiments; purchased Viva
T1 sequence (Q96KQ7 913-1193): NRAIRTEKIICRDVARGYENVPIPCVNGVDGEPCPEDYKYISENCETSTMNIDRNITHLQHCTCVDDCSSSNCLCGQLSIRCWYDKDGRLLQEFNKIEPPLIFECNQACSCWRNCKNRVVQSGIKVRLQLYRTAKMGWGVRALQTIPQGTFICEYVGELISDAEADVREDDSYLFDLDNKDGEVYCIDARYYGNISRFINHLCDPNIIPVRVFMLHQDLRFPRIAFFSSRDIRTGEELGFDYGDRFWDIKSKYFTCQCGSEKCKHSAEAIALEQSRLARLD
The experiment in a line: EHMT2 enzyme assay on histone peptide substrate (3H-SAM Flashplate). In kind it is biochemical. The conditions noted are these: read-out: EHMT2 PEP (IC50 μM). As for the experimental part: Recombinant purified human EHMT2 913-1193 (55 μM) synthesized by Viva was used for all experiments. Biotinylated histone peptides were synthesized by Biopeptide and HPLC-purified to >95% purity. Streptavidin Flashplates and seals were purchased from PerkinElmer and 384 Well V-bottom Polypropylene Plates were from Greiner. ^3H-labeled S-adenosylmethionine (3H-SAM) was obtained from American Radiolabeled Chemicals with a specific activity of 80 Ci/mmol. Unlabeled SAM and S-adenosylhomocysteine (SAH) were obtained from American Radiolabeled Chemicals and Sigma-Aldrich respectively. Flashplates were washed in a Biotek ELx-405 with 0.1% Tween. 384-well Flashplates and 96-well filter binding plates were read on a TopCount microplate reader (PerkinElmer). Compound serial dilutions were performed on a Freedom EVO (Tecan) and spotted into assay plates using a Thermo Scientific Matrix PlateMate (Thermo Scientific). Reagent cocktails were added by Multidrop Combi (Thermo Scientific).
General Procedure for EHMT2 Enzyme Assay on Histone Peptide Substrate.
10-point curves of test compounds were made on a Freedom EVO (Tecan) using serial 3-fold dilutions in DMSO, beginning at 2.5 mM (final top concentration of compound was 50 μM and the DMSO was 2%). A 1 μL aliquot of the inhibitor dilution series was spotted in a polypropylene 384-well V-bottom plate (Greiner) using a Thermo Scientific Matrix PlateMate (Thermo Scientific). The 100% inhibition control consisted of 1 mM final concentration of the product inhibitor S-adenosylhomocysteine (SAH, Sigma-Aldrich). Compounds were incubated for 30 minutes with 40 μL per well of 0.031 nM EHMT2 (recombinant purified human EHMT2 913-1193, Viva) in 1× assay buffer (20 mM Bicine [pH 7.5], 0.002% Tween 20, 0.005% Bovine Skin Gelatin and 1 mM TCEP). 10 μL per well of substrate mix comprising assay buffer, ^3H-SAM (3H-labeled S-adenosylmethionine, American Radiolabeled Chemicals, specific activity of 80 Ci/mmol), unlabeled SAM (American Radiolabeled Chemicals), and peptide representing histone H3 residues 1-15 containing C-terminal biotin (appended to a C-terminal amide-capped lysine, synthesized by Biopeptide and HPLC-purified to greater than 95% purity) were added to initiate the reaction (both substrates were present in the final reaction mixture at their respective Km values, an assay format referred to as “balanced conditions”). Reactions were incubated for 60 minutes at room temperature and quenched with 10 μL per well of 400 μM unlabeled SAM, then transferred to a 384-well streptavidin Flashplate (PerkinElmer) and washed in a Biotek ELx-405 well washer with 0.1% Tween after 60 minutes. 384-well Flashplates were read on a TopCount microplate reader (PerkinElmer).
IC50 curves were generated using triplicate wells per concentration of compound. The IC50 is the concentration of compound at which measured methylation is inhibited by 50% as interpolated from the dose response curves. IC50 values were calculated using a non-linear regression (variable slope-four parameter fit model) with by the following formula
where Top is fixed at 100% and Bottom is fixed to 0%, [I]=concentration of inhibitor, IC50=half maximal inhibitory concentration and n=Hill Slope.

The next assay concerns the target T2, EHMT1 (Homo sapiens, UniProt Q9H9B1).
T2 sequence (Q9H9B1 1-1298): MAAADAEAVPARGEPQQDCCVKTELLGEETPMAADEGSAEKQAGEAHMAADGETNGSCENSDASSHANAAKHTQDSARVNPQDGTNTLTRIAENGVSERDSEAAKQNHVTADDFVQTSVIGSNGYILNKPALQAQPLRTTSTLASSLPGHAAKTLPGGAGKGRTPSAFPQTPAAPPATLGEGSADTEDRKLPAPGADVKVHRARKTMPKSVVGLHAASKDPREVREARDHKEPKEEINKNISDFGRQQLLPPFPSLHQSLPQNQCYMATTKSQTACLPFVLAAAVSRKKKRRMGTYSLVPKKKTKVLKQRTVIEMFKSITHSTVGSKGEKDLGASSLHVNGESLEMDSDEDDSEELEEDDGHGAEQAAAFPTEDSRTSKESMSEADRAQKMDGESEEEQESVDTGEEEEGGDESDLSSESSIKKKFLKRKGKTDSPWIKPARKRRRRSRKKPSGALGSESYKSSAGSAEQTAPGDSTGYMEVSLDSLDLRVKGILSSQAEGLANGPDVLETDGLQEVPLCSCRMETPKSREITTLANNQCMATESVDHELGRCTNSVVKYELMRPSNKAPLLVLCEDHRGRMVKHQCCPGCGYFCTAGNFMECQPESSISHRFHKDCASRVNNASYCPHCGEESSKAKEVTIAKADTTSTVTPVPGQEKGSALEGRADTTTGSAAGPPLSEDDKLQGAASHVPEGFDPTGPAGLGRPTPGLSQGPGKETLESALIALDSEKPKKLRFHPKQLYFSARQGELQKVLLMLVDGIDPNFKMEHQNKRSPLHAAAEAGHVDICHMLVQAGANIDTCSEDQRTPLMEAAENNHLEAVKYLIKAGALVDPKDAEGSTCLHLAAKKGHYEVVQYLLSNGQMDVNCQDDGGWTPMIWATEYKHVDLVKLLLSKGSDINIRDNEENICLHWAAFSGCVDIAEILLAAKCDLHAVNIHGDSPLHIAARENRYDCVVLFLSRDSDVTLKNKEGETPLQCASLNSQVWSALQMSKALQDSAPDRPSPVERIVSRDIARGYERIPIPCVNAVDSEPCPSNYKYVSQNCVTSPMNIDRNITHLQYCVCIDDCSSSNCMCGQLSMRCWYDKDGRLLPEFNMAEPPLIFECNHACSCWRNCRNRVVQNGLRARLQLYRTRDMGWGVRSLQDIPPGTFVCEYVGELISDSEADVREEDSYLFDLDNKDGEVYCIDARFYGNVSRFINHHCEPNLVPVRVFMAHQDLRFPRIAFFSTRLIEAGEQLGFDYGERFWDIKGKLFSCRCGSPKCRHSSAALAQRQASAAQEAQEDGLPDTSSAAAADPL
The experiment in a line: EHMT1 PEP (EHMT1 peptide enzyme assay). In kind it is biochemical. The settings on record: peptide substrate enzyme assay.

By IC50 is commonly meant the concentration at which inhibition is half-maximal. Consider `CNc1cc(C)nc(Nc2ccc(OC)c(-c3cn4c(n3)CN(C)CC4)c2)n1` [Compound 6], for which the IC50 (in assay [1]; against EHMT1) was greater than 10 µM throughout.
Regarding `CNc1cc(C)nc(Nc2ccc(OC)c(-c3cn4c(n3)CNCC4)c2)n1` [Compound 7], the IC50 in assay [1] was 1 to 10 µM; at EHMT1, 0.1 to 1 µM.
`CNc1cc(C)nc(Nc2ccc(OC)c(-c3nc4n(n3)CCNC4)c2)n1` [Compound 8, 2-N-(4-methoxy-3-[4H,5H,6H,7H-[1,2,4]triazolo[1,5-a]pyrazin-2-yl]phenyl)-4-N,6-dimethylpyrimidine-2,4-diamine hydrochloride]: the results for the IC50 (in assay [1]; on EHMT1) were greater than 10 µM and 1 to 10 µM, respectively.
As for `CNc1cc(C)nc(Nc2ccc(OC)c(-c3nc4n(n3)CCN(C)C4)c2)n1` [Compound 9], the IC50 (in assay [1]; against EHMT1) was greater than 10 µM each time.
Regarding `CNc1cc(C)nc(Nc2ccc(OC)c(-n3ncc4c3CCN(C)C4)c2)n1` [Compound 10], the IC50 (in assay [1]; on EHMT1) was 0.1 to 1 µM each time.
Consider `CNc1cc(C)nc(Nc2ccc(OC)c(-c3nnc(C)[nH]3)c2)n1` [Compound 11], for which the IC50 (in assay [1]; against EHMT1) was greater than 10 µM each time.
Consider `CNc1cc(C)nc(Nc2ccc(OC)c(-c3cn[nH]c3)c2)n1` [Compound 12, 2-N-[4-methoxy-3-(1H-pyrazol-4-yl)phenyl]-4-N,6-dimethylpyrimidine-2,4-diamine], for which the IC50 (in assay [1]; against EHMT1) was greater than 10 µM throughout.
Take `CNc1cc(C)nc(Nc2ccc(OC)c(-n3cc4ccccc4n3)c2)n1` [Compound 146]: the results for the IC50 (in assay [1]; at EHMT1) were greater than 10 µM and 0.1 to 1 µM, respectively.
The corresponding values for `CNc1cc(C)nc(Nc2ccc(OC)c(-n3cc4cc(Br)ccc4n3)c2)n1` [Compound 148] are 1 to 10 µM and 0.1 to 1 µM.
On the same counts, the results for `CNc1cc(C)nc(Nc2ccc(OC)c(-n3cc4cncc(C)c4n3)c2)n1` [Compound 151] are 0.1 to 1 µM and 0.1 to 1 µM.
On the same counts, the results for `CNc1cc(C)nc(Nc2ccc(OC)c(-c3ccc4nc(C)[nH]c4c3)c2)n1` [Compound 155] are greater than 10 µM and greater than 10 µM.
For the molecule `CNc1cc(C)nc(Nc2ccc(OC)c(-c3ccc4cc(C)[nH]c4c3)c2)n1` [Compound 156], the half-inhibitory concentration (IC50) (in assay [1]; against EHMT1) was greater than 10 µM throughout.
On to `CNc1cc(C)nc(Nc2ccc(OC)c(-c3cc4ccncc4[nH]3)c2)n1` [Compound 157, N2-(4-methoxy-3-(1H-pyrrolo[2,3-c]pyridin-2-yl)phenyl)-N4,6-dimethylpyrimidine-2,4-diamine], for which the IC50 (in assay [1]; against EHMT1) was less than 0.1 µM throughout.
For the molecule `CNc1cc(C)nc(Nc2ccc(OC)c(-c3cc4cnccc4n3C)c2)n1` [Compound 158], the values for the IC50 (in assay [1]; at EHMT1) were 0.1 to 1 µM and less than 0.1 µM, respectively.
The corresponding values for `CNCc1cn(-c2cc(Nc3nc(C)cc(NC)n3)ccc2OC)nn1` [Compound 159, N2-(4-methoxy-3-(4-((methylamino)methyl)-1H-1,2,3-triazol-1-yl)phenyl)-N4,6-dimethylpyrimidine-2,4-diamine] are less than 0.1 µM and less than 0.1 µM.
On the same counts, the results for `CNc1cc(C)nc(Nc2ccc(OC)c(-n3cc(CN(C)C)c(C)n3)c2)n1` [Compound 160] are less than 0.1 µM and less than 0.1 µM.
On the same counts, the results for `CNc1nc2cc(-n3cc(CN(C)C)nn3)c(OC)cc2n1C` [Compound 163] are 1 to 10 µM and 1 to 10 µM.
For `CNc1cc(C)nc(Nc2ccc(OC)c(-n3cc(C(C)NC)nn3)c2)n1` (stereo not shown) [Compound 164], the IC50 (in assay [1]; against EHMT1) was 0.1 to 1 µM throughout.
As for `CNc1cc(C)nc(Nc2ccc(OC)c(-n3cc(C(NC)C(F)(F)F)nn3)c2)n1` (stereo not shown) [Compound 165], the IC50 (in assay [1]; at EHMT1) was greater than 10 µM each time.
In the case of `CNc1cc(C)nc(Nc2ccc(OC)c(-n3cc(C(C)(C)NC)nn3)c2)n1` [Compound 166], the results for the IC50 (in assay [1]; on EHMT1) were greater than 10 µM and 1 to 10 µM, respectively.
The corresponding values for `CNc1ccnc(Nc2ccc(OC)c(-n3cnc(CN(C)C)c3)c2)n1` [Compound 170] are 0.1 to 1 µM and less than 0.1 µM.
The corresponding values for `CNc1ccnc(Nc2ccc(OC)c(-n3cc(CN(C)C)nn3)c2)n1` [Compound 171] are less than 0.1 µM and less than 0.1 µM.
As to `CCNCc1cn(-c2cc(Nc3nccc(NC)n3)ccc2OC)nn1` [Compound 172], the IC50 (in assay [1]; on EHMT1) was 0.1 to 1 µM each time.
For `CNc1ccnc(Nc2ccc(OC)c(-n3cc(CNCC4CC4)nn3)c2)n1` [Compound 173], the 50% inhibitory concentration (IC50) in assay [1] is 1 to 10 µM; against EHMT1 it was less than 0.1 µM.
On the same counts, the results for `CNc1ccnc(Nc2ccc(OC)c(-c3cc4[nH]ncc4cn3)c2)n1` [Compound 174] are greater than 10 µM and greater than 10 µM.
On the same counts, the results for `CNc1ccnc(Nc2ccc(OC)c(-c3cc4[nH]ccc4cn3)c2)n1` [Compound 175, N2-(4-methoxy-3-(1H-pyrrolo[3,2-c]pyridin-6-yl)phenyl)-N4-methylpyrimidine-2,4-diamine] are less than 0.1 µM and less than 0.1 µM.
On the same counts, the results for `CNc1ccnc(Nc2ccc(OC)c(-n3cc(C4CC4)nn3)c2)n1` [Compound 176] are 1 to 10 µM and 0.1 to 1 µM.
Turning to `CNc1ccnc(Nc2ccc(OC)c(-n3cc(C4COC4)nn3)c2)n1` [Compound 177], the IC50 in assay [1] is greater than 10 µM; at EHMT1, 1 to 10 µM.
On the same counts, the results for `CNc1ccnc(Nc2ccc(OC)c(-c3ccc4cc[nH]c4c3)c2)n1` [Compound 178] are greater than 10 µM and greater than 10 µM.
